Tested on: Staphylococcus Aureus bacteria strain ATCC 6538
Assay: Sustained/control release of anti-bacterial agent from the polymeric product at various temperatures, AATCC 147 zone of inhibition (FIG. 2)
Format: cell-based
Details: polymeric product containing reservoir (melting range of 35-65° C.) with triclosan, 24 hr contact time
Procedure: The activity of an anti-bacterial agent in the polymeric product was conducted by Qualitative AATCC 147 method. The test was conducted with Staphylococcus Aureus bacteria strain ATCC 6538. Observation of growth under the specimen accompanied with no zone of inhibition was considered as No (i.e. failed test with no anti-bacterial activity) and no growth under the specimen, with or without zone of inhibition was considered as Yes (passed test with anti-bacterial activity).
Also the polymeric product containing reservoir (melting range of 35-65° C.) was incorporated with triclosan as anti-bacterial ingredient. The product was washed and dried at ambient temperature of 20° C. after which the fabric was maintained at said temperature for 30 minutes and measured for efficacy. Anti-bacterial analysis was done based on AATCC 147 with 24 hr contact time and the zone of inhibition (in mm) was measured. The sustained/control release of an anti-bacterial agent in the polymeric product was studied at various temperatures. The results are displaced in FIG. 2 of accompanying drawings.

SMILES: Oc1cc(Cl)ccc1Oc1ccc(Cl)cc1Cl [triclosan, 5-chloro-2-(2,4-dichlorophenoxy)phenol]
- release profile of anti-bacterial agent (zone of inhibition): sustained/control release profile with temperature

— patent US20110166192A1, “PROCESS FOR CHARGING A POLYMERIC PRODUCT WITH ATTRIBUTE IMPARTING AGENT(S)” (ADITYA BIRLA SCIENCE & TECHNOLOGY CO. LTD., priority 2008, published 2011)
